Values after ≈ are worked out from the molar mass of the structure shown. Like-named read-outs stand apart in the source and are kept apart here.
Columns and labels:
[1] = tested on: Staphylococcus aureus X400; assay: MIC, standard agar-dilution assay; format: cell-based; conditions: Staphylococcus aureus, X400
Description: (§1) The MIC's in Table II were determined by standard agar-dilution assays. The MIC's in Table III were obtained using a conventional broth-dilution microtiter test.

[2] = tested on: Haemophilus influenzae 76; assay: MIC, standard agar-dilution assay; format: cell-based; conditions: agar-dilution; Haemophilus influenzae 76, Ampicillin-resistant strain; read-out: MIC
Description: as §1

[3] = tested on: Staphylococcus epidermidis EPI2; assay: MIC, standard agar-dilution assay; format: cell-based
Description: as §1

[4] = tested on: Haemophilus influenzae C.L.; assay: MIC, standard agar-dilution assay; format: cell-based
Description: as §1

[5] = tested on: Mycoplasma gallisepticum; assay: MIC, conventional broth-dilution microtiter test; format: cell-based; conditions: Mycoplasmoides gallisepticum; broth-dilution microtiter; Mycoplasma gallisepticum; read-out: MIC
In short: (§2)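 The Klebsiella MIC was obtained by agar-dilution assay. Other organisms (Pasteurella hemolytica, Pasteurella multocida, Mycoplasma gallisepticum) were tested by conventional broth microdilution.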

[6] = tested on: Streptococcus sp. 80; assay: MIC, conventional broth-dilution microtiter test; format: cell-based; conditions: broth-dilution microtiter; Streptococcus sp. 80; read-out: MIC
Description: (§3) Certain of the derivatives are active against some gram-negative bacteria, such as Pasteurella species. The MIC's in Table II were determined by standard agar-dilution assays. The MIC's in Table III were obtained using a conventional broth-dilution microtiter test.

[7] = tested on: Staphylococcus aureus; assay: MIC, conventional broth-dilution microtiter test; format: cell-based; conditions: broth-dilution microtiter, read-out: MIC
Description: as §3

[8] = tested on: Pasteurella multocida 22A; assay: MIC, conventional broth-dilution microtiter test; format: cell-based
In short: as §2

[9] = tested on: Pasteurella multocida 68C; assay: MIC, conventional broth-dilution microtiter test; format: cell-based
In short: as §2

[10] = tested on: Mycoplasma hyorhinis; assay: MIC, conventional broth-dilution microtiter test; format: cell-based; conditions: broth-dilution microtiter; Mycoplasma hyorhinis; read-out: MIC
In short: (§4)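 Agar plates containing graded compound levels gave the Klebsiella value. Graded broth dilutions in microtiter plates gave the Pasteurella and Mycoplasma values.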

[11] = tested on: Mycoplasma synoviae; assay: MIC, conventional broth-dilution microtiter test; format: cell-based; conditions: Mycoplasmopsis synoviae
In short: as §4

[12] = tested on: Pasteurella multocida 17E; assay: MIC, conventional broth-dilution microtiter test; format: cell-based; conditions: Pasteurella multocida, 17E
In short: as §2

[13] = tested on: Pasteurella hemolytica 23C; assay: MIC, conventional broth-dilution microtiter test; format: cell-based; conditions: broth-dilution microtiter; Pasteurella hemolytica 23C; read-out: MIC
In short: as §2

[14] = tested on: Pasteurella hemolytica 22C; assay: MIC, conventional broth-dilution microtiter test; format: cell-based; conditions: broth-dilution microtiter; Pasteurella hemolytica 22C; read-out: MIC
In short: as §2

[15] = tested on: Pasteurella multocida 60A; assay: MIC, conventional broth-dilution microtiter test; format: cell-based
In short: as §2

[16] = tested on: Pasteurella hemolytica 41D; assay: MIC, conventional broth-dilution microtiter test; format: cell-based; conditions: broth-dilution microtiter; Pasteurella hemolytica 41D; read-out: MIC
In short: as §2

[17] = tested on: Pasteurella multocida 40G; assay: MIC, conventional broth-dilution microtiter test; format: cell-based
In short: as §2

[18] = tested on: Mycoplasma gallisepticum 41313; assay: MIC, conventional broth-dilution microtiter test; format: cell-based; conditions: Mycoplasmoides gallisepticum; broth-dilution microtiter; Mycoplasma gallisepticum 41313, Resistant strain; read-out: MIC
In short: as §2

[19] = tested on: Mycoplasma gallisepticum 34159; assay: MIC, conventional broth-dilution microtiter test; format: cell-based; conditions: Mycoplasmoides gallisepticum; broth-dilution microtiter; Mycoplasma gallisepticum 34159, Resistant strain; read-out: MIC
In short: as §2

[20] = tested on: Staphylococcus epidermidis EPI1; assay: microbe, parasite or virus in culture; format: cell-based; conditions: Staphylococcus epidermidis, EPI1
Description: as §1

[21] = tested on: Staphylococcus aureus S13E; assay: microbe, parasite or virus in culture; format: cell-based
Description: as §1

[22] = tested on: Streptococcus pyogenes C203; assay: Protection of mice experimentally infected with S. pyogenes C203; format: in vivo; conditions: mg/kg × 2, doses given 1 and 4 hours postinfection
Description: Some of the derivatives of this invention have shown in vivo antimicrobial activity against experimentally-induced infections in laboratory animals. When two doses of test compound were administered to mice experimentally infected with S. pyogenes C203, the activity observed was measured as an ED50 value [effective dose in mg/kg to protect 50% of the test animals: see Warren Wick, et al., J. Bacteriol. 81, 233-235 (1961)].

[23] = tested on: Streptococcus Group D X66; assay: MIC, standard agar-dilution assay; format: cell-based
Description: as §3

[24] = tested on: Escherichia coli EC14; assay: MIC, standard agar-dilution assay; format: cell-based
Description: as §3

[25] = tested on: Staphylococcus aureus V41; assay: MIC, standard agar-dilution assay; format: cell-based; conditions: Staphylococcus aureus, V41
Description: as §3

[26] = tested on: Klebsiella pneumoniae X26; assay: MIC, standard agar-dilution assay; format: cell-based; conditions: agar-dilution; Klebsiella pneumoniae X26; read-out: MIC
In short: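 Method depends on organism. Klebsiella pneumoniae was assayed on agar. Pasteurella spp. and Mycoplasma gallisepticum were assayed in broth microtiter dilution.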

[27] = tested on: Klebsiella pneumoniae KAE; assay: MIC, standard agar-dilution assay; format: cell-based
In short: as §2

[28] = tested on: Streptococcus pyogenes C203; assay: MIC, standard agar-dilution assay; format: cell-based
Description: as §3

[29] = tested on: Staphylococcus aureus X1.1; assay: MIC, standard agar-dilution assay; format: cell-based; conditions: Staphylococcus aureus, X1.1
In short: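 A standard agar-dilution assay was used to test compounds against the Staphylococcus aureus isolate X1.1. Bacterial growth on agar with different compound concentrations was assessed, and the minimum inhibitory concentration was recorded in ug/mL.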

[30] = tested on: Escherichia coli TEM; assay: MIC, standard agar-dilution assay; format: cell-based; conditions: agar-dilution; Escherichia coli TEM; read-out: MIC
In short: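 Antibacterial activity toward the gram-negative organism Escherichia coli was assessed by conventional agar dilution. The MIC, reported in ug/mL, is the minimum compound concentration on agar that prevents growth.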

[31] = tested on: Streptococcus pneumoniae Park I; assay: MIC, standard agar-dilution assay; format: cell-based; conditions: agar-dilution; Streptococcus pneumoniae Park I; read-out: MIC
Description: as §3

[32] = tested on: Streptococcus pyogenes 9960; assay: MIC, standard agar-dilution assay; format: cell-based
Description: as §3

| SMILES | MIC [1] [µg/mL] | MIC [2] [µg/mL] | MIC [5] [µg/mL] | MIC [6] [µg/mL] | MIC [7] [µg/mL] | MIC [10] [µg/mL] | MIC [12] [µg/mL] | MIC [13] [µg/mL] | MIC [14] [µg/mL] | MIC [16] [µg/mL] | MIC [18] [µg/mL] | MIC [19] [µg/mL] | MIC [20] [µg/mL] | MIC [21] [µg/mL] | MIC [25] [µg/mL] | MIC [26] [µg/mL] | MIC [29] [µg/mL] | MIC [30] [µg/mL] | MIC [31] [µg/mL] | other results |
| --- | --- | --- | --- | --- | --- | --- | --- | --- | --- | --- | --- | --- | --- | --- | --- | --- | --- | --- | --- | --- |
| CCC1OC(=O)CC(O)C(C)C(OC2OC(C)C(O)C(N(C)C)C2O)C(CCOc2ccccc2)CC(C)C(=O)C=CC(C)=CC1COc1ccccc1 (stereo not shown) [Compound 32, 20,23-Di-O-phenyl-20-dihydro-OMT] | 2 (≈ 2.66 µM) | > 128 | 0.78 (≈ 1.04 µM) | 0.048 (≈ 0.0638 µM) | 0.39 (≈ 0.519 µM) | 50 (≈ 66.5 µM) | 3.12 (≈ 4.15 µM) | 12.5 (≈ 16.6 µM) | 12.5 (≈ 16.6 µM) | 12.5 (≈ 16.6 µM) | 25 (≈ 33.2 µM) | 6.25 (≈ 8.31 µM) | 1 (≈ 1.33 µM) | 1 (≈ 1.33 µM) | 1 (≈ 1.33 µM) | > 128 | 1 (≈ 1.33 µM) | > 128 | 0.25 (≈ 0.332 µM) | MIC ([3]; Staphylococcus epidermidis, EPI2): 1 µg/mL (≈ 1.33 µM); MIC ([4]; agar-dilution, Haemophilus influenzae C.L., Ampicillin-sensitive strain, read-out: MIC): > 128 µg/mL; MIC ([8]; Pasteurella multocida, 22A): 3.12 µg/mL (≈ 4.15 µM); MIC ([9]; Pasteurella multocida, 68C): 3.12 µg/mL (≈ 4.15 µM); MIC [11]: 6.25 µg/mL (≈ 8.31 µM); MIC ([15]; Pasteurella multocida, 60A): 3.12 µg/mL (≈ 4.15 µM); MIC ([17]; Pasteurella multocida, 40G): 3.12 µg/mL (≈ 4.15 µM); ED50 ([22]; C203, mice, oral, read-out: ED50 Oral): > 50 mg/kg; ED50 ([22]; C203, sc, mice, subcutaneous, read-out: ED50 Subcutaneous): > 10 mg/kg; MIC ([23]; agar-dilution, Streptococcus Group D X66, read-out: MIC): 0.5 µg/mL (≈ 0.665 µM); MIC ([24]; agar-dilution, Escherichia coli EC14, read-out: MIC): > 128 µg/mL; MIC ([27]; agar-dilution, Klebsiella pneumoniae KAE, read-out: MIC): > 128 µg/mL; MIC ([28]; Streptococcus pyogenes, C203): 2 µg/mL (≈ 2.66 µM); MIC [32]; 9960: 2 µg/mL (≈ 2.66 µM) |
| CCC1OC(=O)CC(O)C(C)C(OC2OC(C)C(O)C(N(C)C)C2O)C(CCO)CC(C)C(=O)C=CC(C)=CC1CN1CCCCCCC1 (stereo not shown) [Compound 58, 20-Dihydro-23-Octahydroazocin-1-yl-23-deoxy-OMT] | 1 (≈ 1.44 µM) | 4 (≈ 5.76 µM) | 0.39 (≈ 0.561 µM) | 1.56 (≈ 2.24 µM) | 0.78 (≈ 1.12 µM) | 25 (≈ 36 µM) | 3.12 (≈ 4.49 µM) | 0.78 (≈ 1.12 µM) | 0.78 (≈ 1.12 µM) | 0.39 (≈ 0.561 µM) | 50 (≈ 71.9 µM) | > 50 | 0.5 (≈ 0.719 µM) | 0.5 (≈ 0.719 µM) | 0.5 (≈ 0.719 µM) | 2 (≈ 2.88 µM) | 0.5 (≈ 0.719 µM) | 8 (≈ 11.5 µM) | 0.25 (≈ 0.36 µM) | MIC ([3]; agar-dilution, Staphylococcus epidermidis EPI2, read-out: MIC): 0.25 µg/mL (≈ 0.36 µM); MIC ([4]; Haemophilus influenzae): 2 µg/mL (≈ 2.88 µM); MIC ([8]; broth-dilution microtiter, Pasteurella multocida 22A, read-out: MIC): 1.56 µg/mL (≈ 2.24 µM); MIC ([9]; broth-dilution microtiter, Pasteurella multocida 68C, read-out: MIC): 1.56 µg/mL (≈ 2.24 µM); MIC ([11]; broth-dilution microtiter, Mycoplasma synoviae, read-out: MIC): 6.25 µg/mL (≈ 8.99 µM); MIC ([15]; broth-dilution microtiter, Pasteurella multocida 60A, Avian isolate, read-out: MIC): 0.78 µg/mL (≈ 1.12 µM); MIC ([17]; broth-dilution microtiter, Pasteurella multocida 40G, read-out: MIC): 0.39 µg/mL (≈ 0.561 µM); MIC [23]: 2 µg/mL (≈ 2.88 µM); MIC ([24]; Escherichia coli, EC14): 64 µg/mL (≈ 92.1 µM); MIC ([27]; Klebsiella pneumoniae): 64 µg/mL (≈ 92.1 µM); MIC ([28]; agar-dilution, Streptococcus pyogenes C203, read-out: MIC): 0.25 µg/mL (≈ 0.36 µM); MIC ([32]; agar-dilution, Streptococcus 9960, read-out: MIC): 4 µg/mL (≈ 5.76 µM) |
